Experimental data taken from patent publication US10426717B2, “Glycol esters of dicaffeoylquinic acid and uses thereof” (PLANT ADVANCED TECHNOLOGIES PAT, priority 2016, dated 2019).

Legend:
[1] = tested on: fibroblasts NHDFs; assay: Induction of a radical stress by the actives, ROS with H2DCFDA probe; assay type: cell-based, human; conditions: fibroblasts treated with Trolox, normalised to MTS viability, vs 0.1% EtOH control
Method: The study has been made on human dermis fibroblasts NHDFs (ATCC, CRL-2522, origin: foreskin) cultured in single layer in DMEM medium (Invitrogen, 31885-049) containing 10% foetal calf serum (Invitrogen, 10270-106) and antibiotics (Penicillin/Streptomycin, Invitrogen, 15140-122). These cells have been maintained in a wet atmosphere at 37° C. containing 5% CO2. In order to validate the hypothesis of a hormetic effect, it has been checked beforehand that the treatment by the actives alone induced a radical stress. The test used is based on the use of the fluorescent probe H2DCFDA (2′-7′dichlorodihydrofluorescein diacetate, Fischer Scientific, #D399). The probe diffusion into the cell enables its acetate group to be cleaved by intracellular esterases. […] The production of free radicals can thus be quantised by the level of fluorescence emitted by the probe oxidised. […] After rinsing, the fluorescence emitted has been quantised (excitation: 485 nm; emission: 520 nm). In order to provide a result representative of the cellular population of each condition, a cellular viability test (MTS) has been made immediately after quantising the fluorescence emitted. The fluorescence values have thus been normalised with respect to the cellular viabilities.

[2] = tested on: human dermis fibroblasts NHDFs; assay: Cytotoxicity study of the fractions, cell viability to MTS (Example 3); assay type: cell-based; conditions: 24 h, 100, 50, 25, 12.5 and 6.25 μM, cytotoxicity threshold 80% viability
Method: (§1) The study has been made on human dermis fibroblasts NHDFs (ATCC, CRL-2522, origin: foreskin) at about 40% of their proliferative potential in vitro. These cells have been cultivated in single layer in DMEM medium (Invitrogen, 31885-049) containing 10% foetal calf serum (Invitrogen, 10270-106) and antibiotics (penicillin/streptomycin, Invitrogen, 15140-122). These cells have been maintained in a wet atmosphere at 37° C. containing 5% CO2.
In order to determine the optimum analysis concentration for the fractions, a preliminary experiment has been made on human dermis fibroblasts NHDFs having performed 30.3 population doublings. This study consisted in evaluating cell viability to MTS (3-(4,5-dimethythiazol-2-yl)-5-(3-carboxy-methoxyphenyl)-2-(4-sulphophenyl)-2H-tetrazolium) (Promega, G3581) after 24 h treatment for the 4 fractions, at 5 concentrations (100 μM, 50 μM, 25 μM, 12.5 μM, and 6.25 μM) and in culture triplicates (n=3). The fractions and extract have been prepared in DMSO and DPG70 respectively, the effect of these 2 vehicles has also been tested.
0.08% SDS (sodium dodecyl sulphate) has been used as a cytotoxicity positive control in order to validate the experiment.
In order to determine the optimum study concentration of the 4 fractions, a cytotoxicity study has been made on human dermis fibroblasts NHDFs, based on 5 concentrations after 24 h contact (n=3). The experimental parameters were identical to those used in the following for the study of the effects on the gene expression in terms of culture passages of the cells, confluence and contact time. The effect of the 2 vehicles (DPG70 and DMSO) has been tested in parallel.
The results have been compared to the untreated control and 0.08% SDS has been used as a cytotoxicity positive control in order to validate the experiment. The cytotoxicity threshold has been arbitrarily set to 80% viability.

[3] = tested on: fibroblasts NHDFs; assay: Real time qPCR of Nrf-2 regulated genes (Example 3); assay type: cell-based, human; conditions: 24 h, fraction at 50 μM, vs 0.5% DMSO control
Excerpt: In order to determine which fraction of the extract according to the invention is responsible for this effect, the expression variations of seven target markers (involved in cellular and skin ageing induced by four fractions of an Ipomoea batatas root extract, and by the extract itself, in fibroblasts have been measured by qRT-PCR. A condition corresponding to fibroblasts NHDFs irradiated with UVA (10 J/cm^2) has been analysed in parallel as a positive control for the test.
The seven markers studied (HOMX1, NQO1, HSPA1A, GCLM, GSTP1, UGT1A6 and NOS2) are genes the expression of which is known to be regulated by the transcription factor Nrf-2, playing a major role in the antioxidant defence.
as §1
The extraction of total RNAs has been made using the RNeasy kit (Qiagen, 74106), after 24 h treatment with the fractions or 6 h after UVA irradiation. The cells have been rinsed with PBS and lysed in ad hoc buffer (culture triplicates have been made for each condition). The extraction and purification of the RNAs have been made according to the supplier's instructions. The total RNAs have been preserved at −80° C. afterwards.
The real time qPCR method has been used to quantise the expression of target markers in the different populations of RNAs. The specific TaqMan probes have been synthesised by the company Applied Biosystems.
The target sequences of the genes of interest have been amplified by PCR by using the “TaqMan Gene Expression Assays” (Applied Biosystems). […] The TaqMan probes have been grafted with a fluorophore (FAM) at the 5′ end of the sequence with a 3′ fluorescence quencher. […]

SMILES: Cc1c(C)c2c(c(C)c1O)CCC(C)(C(=O)O)O2 (stereo not shown) [Trolox]
- production of reactive oxygen species (ROS), radical stress [1]: no radical stress

SMILES: O=C(/C=C/c1ccc(O)c(O)c1)OC1CC(O)(C(=O)O)CC(O)C1OC(=O)/C=C/c1ccc(O)c(O)c1 (stereo not shown) [STL967, 4,5-DCQ (Isochlorogenic acid C)]
- cytotoxicity (cell viability to MTS) [2]: no cytotoxicity
- overexpression of genes of interest (HMOX1, HSPA1A, NQO1, GCLM, GSTP1; FIGS. 7 to 11) [3]: do not induce an overexpression

SMILES: O=C(/C=C/c1ccc(O)c(O)c1)OC1CC(O)(C(=O)O)CC(OC(=O)/C=C/c2ccc(O)c(O)c2)C1O (stereo not shown) [STL965, 3,5-DCQ (Isochlorogenic acid A)]
- cytotoxicity (cell viability to MTS) [2]: no cytotoxicity
- overexpression of genes of interest (HMOX1, HSPA1A, NQO1, GCLM, GSTP1; FIGS. 7 to 11) [3]: do not induce an overexpression

SMILES: O=C(/C=C/c1ccc(O)c(O)c1)OC1CC(O)(C(=O)O)CC(O)C1OC(=O)/C=C/c1ccc(O)c(O)c1 (stereo not shown) [STL964, 3,4-DCQ (Isochlorogenic acid B)]
- cytotoxicity (cell viability to MTS) [2]: no cytotoxicity
- overexpression of genes of interest (HMOX1, HSPA1A, NQO1, GCLM, GSTP1; FIGS. 7 to 11) [3]: do not induce an overexpression
